Data set [1] has as its system XIAP and survivin mRNA. Briefly: Quantitative PCR of XIAP and survivin mRNA. To be noted: real-time PCR, different concentrations. The format is cell-based, human. As to the method:
About 1 × 10^6 cells were gathered after pre-treatment with PAC-1 or WF-208 as described previously. Total RNA was isolated using RNeasy Mini Kit (Qiagen, Duesseldorf, Germany) as described by the product’s instruction. One microgram of RNA was reversely transcribed with ReverAid First Stand cDNA Sythesis Kit (Thermo Fisher, Rockford, USA). For quantitative PCR, analysis was carried out by using iQ SYBR Green Supermix (Bio-Rad, West Berkeley, USA) and the CFX96 RT-PCR Detection System (Bio-Rad) as instructed by the manufacturer. Primers were GAPDH reverse primer 5′-[…]-3′ and forward primer 5′-TTGCCGACAGGATGCAGAA-3′; XIAP reverse primer 5′-TTGCCGACAGGATGCAGAA-3′ and forward primer 5′-[…]-3′; Survivin reverse primer 5′-GGAAACTGCGGAGAAAGTG-3′ and forward primer 5′-TAAACCCTGGAAGTGGTGC-3′. The PCR cycle started with 5 min. at 95°C, followed by 35 cycles of 3 steps (30 sec. at 95°C, 25 sec. at 56°C, 20 sec. at 72°C). The result was calculated as 2^−ΔΔCt of real-time fluorescence intensity.
(In qPCR the cycle at which signal appears reflects the starting amount.)

Data set [2] relates to MCF-7 cells transfected with procaspase-3. Briefly: Cytotoxicity in MCF-7 cells transfected with procaspase-3. The format is cell-based, human. Conditions: different concentrations, vs empty vector. The protocol: (§1) The cell viability effects of the tested compounds were determined by MTT assay. Cells (1 × 10^4 cells/100 μl/well) were seeded into 96-well culture plates. After overnight incubation, cells were treated with various concentrations of compounds for 72 hrs. Subsequently, 10 μl MTT solution (2.5 mg/ml in PBS) was added to each well, than the cells were incubated for an additional 3–4 hrs at 37°C. After centrifugation (200 × g, 10 min.), the medium with MTT was aspirated, followed by the addition of 100 μl DMSO. The optical density of each well was measured at 570 nm with a Biotek Synergy TM HT Reader.
HL-60 cells were transfected with procaspase-3 siRNA (Invitrogen, New York, USA, 100 nmol/l final concentration, Sense siRNA Sequence: GUCUAACUGGAAAACCCAAtt Antisense siRNA Sequence: UUGGGUUUUCCAGUUAGACtt) by Lipofectamine 2000 (Invitrogen) according to the manufacturer’s instructions. Scrambled siRNA (Invitrogen) was control. The cDNA of human procaspase-3 was cloned into pIRES2-EGFP expression vector, and procaspase-3 and EGFP genes were separately expressed. The pIRES2-EGFP and pIRES2-EGFP-procaspase-3 were transiently transfected into MCF-7 cells. Expression of procaspase-3 was verified by western blotting.

The test system of data set [3] is HL-60 cell line. Briefly: MTT cell viability assay, HL-60. To be noted: Homo sapiens, 72 hrs. Format: cell-based. As to the method: as §1
Data set [4] relates to HL-60 cell line. Put plainly: MTT cell viability assay, HL-60. The format is cell-based, human. Conditions: HL-60, 10 μM ZnSO4, 24 hrs. (In general: Tetrazolium assays rely on reduction of a dye to a coloured formazan, in cell work by metabolically active cells.)
For data set [5], the target named is T1, rh-procaspase-3 (Homo sapiens, UniProt P42574).
T1 construct: purchased R&D System (Minneapolis, USA)
T1 sequence (P42574 1-277): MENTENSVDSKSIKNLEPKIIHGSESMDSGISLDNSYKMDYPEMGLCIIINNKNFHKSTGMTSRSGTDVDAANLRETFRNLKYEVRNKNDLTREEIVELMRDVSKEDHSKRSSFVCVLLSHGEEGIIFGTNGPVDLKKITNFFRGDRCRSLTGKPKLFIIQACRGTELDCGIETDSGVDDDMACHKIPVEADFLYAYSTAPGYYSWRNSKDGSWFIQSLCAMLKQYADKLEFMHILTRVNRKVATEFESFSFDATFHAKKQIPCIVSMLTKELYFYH
Put plainly: Assay of zinc inhibition of procaspase-3 activation. Format: biochemical. To be noted: PC3 + 5 μM ZnSO4; read-out: EC50 of procaspase-3 activation in zinc-containing buffer. As to the method: HEPES buffer [with 50 mM HEPES and 300 mM NaCl (pH 7.4)] was treated with Chelex resin to remove trace bivalent cations (including zinc ion). ZnSO4 and different concentration PAC-1 or WF-208 was added to procaspase-3 in HEPES to yield a final concentration of 0.5 μM procaspase-3. After 12 hrs of incubation at 37°C, Ac-DEVD-pNA in buffer [50 mM Hepes (pH 7.4), 100 mM NaCl, 10 mM DTT, 0.1 mM EDTA disodium salt, 0.10% Chaps, 10% glycerol] was added. The final concentration Ac-DEVD-pNA is 0.4 μM. Then the plate was read absorbance at 405 nm in kinetic mode for 10 min. On the other hand, after various time of incubation at 37°C, western blotting was used to detect the cleavage of procaspase-3 [13],[14].

The target of data set [6] is T1, rh-procaspase-3. Briefly: Caspase-3 activation assay (procaspase-3 activation in vitro). The format is biochemical. Conditions: rh-procaspase-3, concentrations 0.08–100 μM. As to the method: Procaspase-3 protein was purchased from R&D System (Minneapolis, USA). Procaspase-3 protein was added into 384-well plates. Tested compounds (or DMSO as control) were then added to achieve a final concentration of procaspase-3 of 50 ng/ml. Each plate was incubated for 2 hrs at 37°C. Then caspase-3 peptide substrate (acetyl Asp-Glu-Val-Asp-[…] (Ac-DEVD-pNa), 200 μM) were added. The absorbance of each well was measured at 405 nm in kinetic mode for 10 min [13].

Data set [7] deals with mouse primary cortical cell. Briefly: Cytotoxicity in mouse primary cortical neuron cells. Conditions: neurotoxicity. Format: cell-based. The protocol: as §1
Data set [8] relates to HL-60 cells. Briefly: Immunofluorescence of cleaved caspase-3. Format: cell-based, human. To be noted: 10 μM, 24 hrs. The protocol:
HL-60 cells were treated with the 50 μM of PAC-1 and 10 μM WF-208 for 0.5, 1, 3, 6, 12 and 24 hrs. After such treatment, cells were fixed in 4% paraformaldehyde for 15 min., washed with PBS. Subsequently, cells were blocked with 10% bovine serum albumin (BSA) and Triton X-100 for 1 hr at room temperature and incubated at 4°C overnight with anti-cleaved caspase-3 rabbit mAb (1:100) diluted in 1% BSA. After three times of washing with PBS, cells were incubated with secondary antibody (FITC-conjugated goat anti-rabbit IgG, 1:200) for 1 hr at room temperature. Hoechst 33342 was used as a double staining for the nucleus. After washing with PBS, digital images of the cells captured under with ImageXpress 5000 (Molecular Devices, Sunnyvale, CA, USA). The images were quantified and analysed by using MetaXpress software (Molecular Devices). Cleaved caspase-3 level was expressed as the percentage of positively FITC-stained cells.

In general, IC50 refers to the concentration needed to halve the response being measured. Usually EC50 stands for the concentration giving half of the maximal effect.

`O=C(CN1CCN(Cc2nc(-c3ccc(COc4ccc(Cl)cc4)cc3)no2)CC1)N/N=C/c1ccc(OCc2csc(Cc3ccc4c(c3)OCO4)n2)cc1O` [C2]: the “XIAP and survivin mRNA” value in data set [1] is reported as “failed to change”. In data set [2], the “cytotoxic effect in MCF-7 cells transfected with procaspase-3” value is listed as “more sensitive”. Further, the figures for the IC50 in data set [3] and in data set [7] were 0.08 µM and 96.2 µM, respectively. Further, in data set [4], the “cytotoxicity on co-treatment with ZnSO4” value was “significantly relieved”. In addition, the concentration giving a half-maximal response (EC50) came to 2.49 µM in data set [5] and 0.56 µM in data set [6]. Also, in data set [8], the “cells with procaspase-3 cleaved” value is “more than 60%”.

Values taken from publication PMC4549042, “Targeting procaspase-3 with WF-208, a novel PAC-1 derivative, causes selective cancer cell apoptosis” (Journal of Cellular and Molecular Medicine, 2015).
